{
  "source": "patent US6114371A",
  "about": "“3-(cyclohexanoheteroarylidenyl)-2-indolinone protein tyrosine kinase inhibitors” (Sugen, Inc., priority 1998, dated 2000)",
  "key": {"FLK-1 receptor": {"target": "T1, FLK-1 receptor (Mus musculus, UniProt P35918)", "T1 construct": "expressed in transfected cells; host or cells: NIH3T3 C7#3 cells", "T1 sequence (P35918 20-1345)": "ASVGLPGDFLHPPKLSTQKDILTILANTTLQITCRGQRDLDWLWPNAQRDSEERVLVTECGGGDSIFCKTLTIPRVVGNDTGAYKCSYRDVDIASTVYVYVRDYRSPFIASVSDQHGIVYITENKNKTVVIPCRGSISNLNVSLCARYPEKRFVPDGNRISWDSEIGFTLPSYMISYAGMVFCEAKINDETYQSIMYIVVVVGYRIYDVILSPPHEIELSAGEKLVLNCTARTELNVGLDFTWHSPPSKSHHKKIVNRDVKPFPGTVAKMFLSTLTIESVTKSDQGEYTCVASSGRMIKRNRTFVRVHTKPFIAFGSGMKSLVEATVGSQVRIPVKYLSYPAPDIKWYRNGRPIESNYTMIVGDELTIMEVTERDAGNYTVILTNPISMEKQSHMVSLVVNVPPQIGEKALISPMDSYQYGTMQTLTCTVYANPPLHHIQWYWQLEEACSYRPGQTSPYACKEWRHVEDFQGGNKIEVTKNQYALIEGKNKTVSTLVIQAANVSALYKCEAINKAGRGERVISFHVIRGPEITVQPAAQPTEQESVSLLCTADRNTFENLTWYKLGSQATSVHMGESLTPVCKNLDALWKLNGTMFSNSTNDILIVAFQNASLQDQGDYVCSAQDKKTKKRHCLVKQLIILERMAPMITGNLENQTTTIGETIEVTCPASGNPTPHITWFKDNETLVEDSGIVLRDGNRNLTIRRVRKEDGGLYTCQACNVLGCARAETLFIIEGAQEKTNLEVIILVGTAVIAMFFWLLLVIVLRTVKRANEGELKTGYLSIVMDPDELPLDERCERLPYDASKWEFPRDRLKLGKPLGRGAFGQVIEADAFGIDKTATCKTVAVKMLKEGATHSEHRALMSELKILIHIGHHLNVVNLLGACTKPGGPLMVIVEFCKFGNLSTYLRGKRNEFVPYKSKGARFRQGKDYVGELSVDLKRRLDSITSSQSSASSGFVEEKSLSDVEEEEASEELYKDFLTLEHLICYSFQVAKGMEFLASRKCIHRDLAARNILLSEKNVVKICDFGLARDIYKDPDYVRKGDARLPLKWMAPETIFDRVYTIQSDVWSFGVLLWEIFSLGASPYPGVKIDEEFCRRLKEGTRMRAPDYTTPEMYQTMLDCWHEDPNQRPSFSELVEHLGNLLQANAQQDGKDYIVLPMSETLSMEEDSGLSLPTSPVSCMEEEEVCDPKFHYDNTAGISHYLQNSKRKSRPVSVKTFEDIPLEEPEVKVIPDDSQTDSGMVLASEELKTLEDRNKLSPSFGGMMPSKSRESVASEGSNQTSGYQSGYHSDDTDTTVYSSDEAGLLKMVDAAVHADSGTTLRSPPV", "assay": "FLK-1 ELISA (kinase activity of the FLK-1 receptor in engineered cells)", "type": "cell-based", "details": "Table 2; read-out: FLK-1R IC50"}, "src protein kinase": {"target": "T2, src protein kinase (Gallus gallus, UniProt P00523)", "T2 construct": "made in house; host or cells: Schizosaccharomyces pombe (yeast transformed with src, lysate)", "assay": "Biochemical src assay - ELISA", "details": "Table 2", "method": "This assay is used to determine src protein kinase activity measuring phosphorylation of a biotinylated peptide as the readout.\nh. […] S. Pombe strain SP200 (h-s leul.32 ura4 ade210) is grown as described and transformations are pRSP expression plasmids are done by the lithium acetate method (Superti-Furga, supra). Cells are grown in the presence of 1 μM thiamine to repress expression from the nmtl promoter or in the absence of thiamine to induce expression.\n2. Add 0.08 mL Kinase Reaction Mixture per well (containing 10 μL of 10×Kinase Buffer and 10 μM (final concentration) biotin-[…] per well diluted in water.\n(§1) 3. Add 10 μL of compound diluted in water containing 10% DMSO and pre-incubate for 15 minutes at room temperature.\n4. Start kinase reaction by adding 10 μL/well of 0.05 mM ATP in water (5 μM ATP final).\n(§2) The IC50 values were measured for several of the compounds of the invention."}, "lck protein kinase": {"target": "T3, lck protein kinase (Homo sapiens, UniProt P06239)", "T3 construct": "made in house; host or cells: Schizosaccharomyces pombe strain SP200 (lysate)", "assay": "Biochemical lck assay - ELISA", "details": "Table 2", "method": "This assay is used to determine lck protein kinase activities measuring phosphorylation of GST-.zeta. as the readout.\nb. Yeast transformed with lck. […] S. Pombe strain SP200 (h-s leul.32 ura4 ade210) is grown as described and transformations with pRSP expression plasmids are done by the lithium acetate method (Superti-Furga, supra). Cells are grown in the presence of 1 μM thiamine to induce expression.\n2. Add 0.08 mL Kinase Reaction Mixture per well (containing 10 μl of 10×Kinase Buffer and 2 μg GST-.zeta. per well diluted with water).\nas §1\n4. Start kinase reaction by adding 10 μL/well of 0.1 mM ATP in water (10 μM ATP final).\nThe IC50 values were measured for one of the compounds of the invention."}, "FAK": {"target": "FAK (Homo sapiens, UniProt Q05397)", "sequence (Q05397 whole entry, species assumed)": "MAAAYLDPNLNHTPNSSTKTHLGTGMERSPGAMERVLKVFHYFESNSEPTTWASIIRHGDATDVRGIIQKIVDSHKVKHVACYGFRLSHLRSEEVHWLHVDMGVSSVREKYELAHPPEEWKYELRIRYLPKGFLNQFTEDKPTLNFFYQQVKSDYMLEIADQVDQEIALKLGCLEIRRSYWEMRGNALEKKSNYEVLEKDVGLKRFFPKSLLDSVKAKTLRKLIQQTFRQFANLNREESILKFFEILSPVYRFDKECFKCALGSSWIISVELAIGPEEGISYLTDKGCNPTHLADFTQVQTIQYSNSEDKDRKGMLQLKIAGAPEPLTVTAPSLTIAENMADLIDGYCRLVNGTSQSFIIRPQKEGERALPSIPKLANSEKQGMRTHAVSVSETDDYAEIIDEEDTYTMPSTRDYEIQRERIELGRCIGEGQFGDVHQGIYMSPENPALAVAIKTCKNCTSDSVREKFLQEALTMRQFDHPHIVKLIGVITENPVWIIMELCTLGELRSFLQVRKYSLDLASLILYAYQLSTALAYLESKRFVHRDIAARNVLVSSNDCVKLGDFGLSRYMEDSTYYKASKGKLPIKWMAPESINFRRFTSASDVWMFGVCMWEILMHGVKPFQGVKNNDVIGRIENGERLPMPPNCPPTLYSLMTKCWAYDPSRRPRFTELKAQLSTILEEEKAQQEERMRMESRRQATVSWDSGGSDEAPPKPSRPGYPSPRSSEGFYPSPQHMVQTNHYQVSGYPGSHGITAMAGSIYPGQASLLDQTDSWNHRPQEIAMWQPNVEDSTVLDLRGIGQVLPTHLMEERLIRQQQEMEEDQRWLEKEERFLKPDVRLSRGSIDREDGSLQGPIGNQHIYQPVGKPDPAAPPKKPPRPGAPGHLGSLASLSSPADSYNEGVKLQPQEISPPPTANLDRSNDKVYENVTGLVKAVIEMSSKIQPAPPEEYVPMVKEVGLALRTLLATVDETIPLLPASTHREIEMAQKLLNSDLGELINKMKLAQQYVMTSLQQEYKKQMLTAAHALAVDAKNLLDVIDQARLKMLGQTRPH", "assay": "FAK assay", "type": "biochemical", "details": "Table 2"}, "HUV-EC-C cells [1]": {"tested_on": "HUV-EC-C cells", "assay": "HUV-EC-C assay, VEGF (3H-thymidine incorporation)", "type": "cell-based, human", "details": "Table 2, VEGF-stimulated HUV-EC-C, read-out: HUV-EC-C ATCC VEGF IC50", "method": "(§3) The following protocol may also be used to measure a compound's activity against PDGF-R, FGF-R, VEGF, aFGF or Flk-1/KDR, all of which are naturally expressed by HUV-EC cells.\n(§4) 1. […] After cells have detached from the flask, add an equal volume of assay medium and transfer to a 50 mL sterile centrifuge tube (Fisher Scientific; catalogue no. 05-539-6).\n(§5) 1. Make up two-fold drug titrations in separate 96-well plates, generally 50 μM on down to 0 μM. Use the same assay medium as mentioned in day 0, step 2 above. Titrations are made by adding 90 μl/well of drug at 200 μM (4×the final well concentration) to the top well of a particular plate column. Since the stock drug concentration is usually 20 mM in DMSO, the 200 μM drug concentration contains 2% DMSO.\nTherefore, diluent made up to 2% DMSO in assay medium (F12K+0.5% fetal bovine serum) is used as diluent for the drug titrations in order to dilute the drug but keep the DMSO concentration constant. Add this diluent to the remaining wells in the column at 60 μl/well. […]\n(§6) 1. Thaw plates and harvest with a 96-well plate harvester (Tomtec Harvester 96®) onto filter mats (Wallac; catalogue no. 1205-401); read counts on a Wallac Betaplate™ liquid scintillation counter.\nas §2"}, "HUV-EC-C cells [2]": {"tested_on": "HUV-EC-C cells", "assay": "HUV-EC-C assay, aFGF (3H-thymidine incorporation)", "type": "cell-based, human", "details": "Table 2, aFGF-stimulated HUV-EC-C, read-out: HUV-EC-C ATCC aFGF IC50", "method": "as §3, §4, §5\nTherefore, diluent made up to 2% DMSO in assay medium (F12K+0.5% fetal bovine serum) is used as diluent for the drug titrations in order to dilute the drug but keep the DMSO concentration constant. Add this diluent to the remaining wells in the column at 60 μl/well. Take 60 μl from the 120 μl of 200 μM drug dilution in the top well of the column and mix with the 60 μl in the second well of the column. Take 60 μl from this well and mix with the 60 μl in the third well of the column, and so on until two-fold titrations are completed. When the next-to-the-last well is mixed, take 60 μl of the 120 μl in this well and discard it. Leave the last well with 60 μl of DMSO/media diluent as a non-drug-containing control. Make 9 columns of titrated drug, enough for triplicate wells each for 1) VEGF (obtained from Pepro Tech Inc., catalogue no. 100-200, 2) endothelial cell growth factor (ECGF) (also known as acidic fibroblast growth factor, or aFGF) (obtained from Boehringer Mannheim Biochemica, catalogue no. 1439 600); or, 3) human PDGF B/B (1276-956, Boehringer Mannheim, Germany) and assay media control. ECGF comes as a preparation with sodium heparin.\n2. Transfer 50 μl/well of the drug dilutions to the 96-well assay plates containing the 0.8-1.0×10^4 cells/100 μl/well of the HUV-EC-C cells from day 0 and incubate ~2 h at 37° C., 5% CO2.\n3. In triplicate, add 50 μl/well of […] VEGF, 20 ng/mL ECGF, or media control to each drug condition. As with the drugs, the growth factor concentrations are 4×the desired final concentration. Use the assay media from day 0 step 2 to make the concentrations of growth factors. Incubate approximately 24 hours at 37° C., 5% CO2. Each well will have 50 μl drug dilution, 50 μl growth factor or media, and 100 ul cells, =200 ul/well total. Thus the 4×concentrations of drugs and growth factors become 1× once everything has been added to the wells.\n1. Add ^3 H-thymidine (Amersham; catalogue no. TRK-686) at 1 μCi/well (10 μl/well of 100 μCi/mL solution made up in RPMI media+10% heat-inactivated fetal bovine serum) and incubate ~24 h at 37° C., 5% CO2. RPMI is obtained from Gibco BRL, catalogue no. 11875-051.\nas §6, §2"}, "EGFr": {"target": "EGFr (Homo sapiens, UniProt P00533)", "sequence (P00533 25-1210)": "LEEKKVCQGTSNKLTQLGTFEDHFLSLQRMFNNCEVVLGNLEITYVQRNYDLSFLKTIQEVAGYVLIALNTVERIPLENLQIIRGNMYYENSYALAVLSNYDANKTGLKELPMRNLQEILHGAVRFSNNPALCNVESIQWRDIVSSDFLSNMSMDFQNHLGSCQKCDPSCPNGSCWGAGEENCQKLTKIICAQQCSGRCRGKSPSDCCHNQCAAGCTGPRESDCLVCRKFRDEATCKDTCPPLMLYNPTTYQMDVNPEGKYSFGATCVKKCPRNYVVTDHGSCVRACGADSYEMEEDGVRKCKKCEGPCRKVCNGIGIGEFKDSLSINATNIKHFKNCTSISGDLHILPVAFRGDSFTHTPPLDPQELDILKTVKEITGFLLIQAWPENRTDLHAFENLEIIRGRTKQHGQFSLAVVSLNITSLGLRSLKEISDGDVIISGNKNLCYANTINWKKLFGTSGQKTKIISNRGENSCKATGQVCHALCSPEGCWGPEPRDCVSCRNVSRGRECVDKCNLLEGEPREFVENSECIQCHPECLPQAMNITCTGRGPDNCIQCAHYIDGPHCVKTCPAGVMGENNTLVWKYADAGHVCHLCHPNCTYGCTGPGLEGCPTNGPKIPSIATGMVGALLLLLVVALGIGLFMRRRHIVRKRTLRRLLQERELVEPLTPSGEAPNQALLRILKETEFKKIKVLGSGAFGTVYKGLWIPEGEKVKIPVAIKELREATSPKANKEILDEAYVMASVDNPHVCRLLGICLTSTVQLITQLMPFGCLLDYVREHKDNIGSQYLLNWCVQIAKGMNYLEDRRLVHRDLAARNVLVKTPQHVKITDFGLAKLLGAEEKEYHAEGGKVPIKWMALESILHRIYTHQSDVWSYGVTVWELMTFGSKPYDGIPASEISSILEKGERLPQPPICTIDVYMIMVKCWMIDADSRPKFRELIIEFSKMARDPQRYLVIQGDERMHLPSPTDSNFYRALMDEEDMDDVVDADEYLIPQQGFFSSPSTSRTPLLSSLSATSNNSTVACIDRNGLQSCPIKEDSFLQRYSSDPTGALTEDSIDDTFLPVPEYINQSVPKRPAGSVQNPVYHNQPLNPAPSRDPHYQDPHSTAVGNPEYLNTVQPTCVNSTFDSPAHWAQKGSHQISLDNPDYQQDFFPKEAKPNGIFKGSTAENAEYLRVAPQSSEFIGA", "assay": "EGF receptor ELISA", "type": "cell-based", "set-up": "expressed in transfected cells; host or cells: NIH 3T3/C7", "details": "Table 2; read-out: EGFR IC50", "method": "EGF Receptor kinase activity in cells genetically engineered to express human EGF-R can be measured as described below:\n1. Check seeded cells for contamination using an inverted microscope. Dilute drug stock (10 mg/mL in DMSO) 1:10 in DMEM medium, then transfer 5 μL to a test well for a final drug dilution of 1:200 and a final DMSO concentration of 1%. Control wells receive DMSO alone. Incubate in 5% CO2 at 37° C. for one hour.\n5. After two hours incubation with drug, add prepared EGF ligand to cells, 10 μL per well, to yield a final concentration of 25 nM. Control wells receive DMEM alone. Incubate, shaking, at room temperature, for 5 minutes.\n12. The maximal phosphotyrosine signal is determined by subtracting the value of the negative controls from the positive controls. The percent inhibition of phosphotyrosine content for extract-containing wells is then calculated, after subtraction of the negative controls."}, "PDGFr": {"target": "PDGFr (Homo sapiens, UniProt P09619)", "sequence (P09619 33-1106)": "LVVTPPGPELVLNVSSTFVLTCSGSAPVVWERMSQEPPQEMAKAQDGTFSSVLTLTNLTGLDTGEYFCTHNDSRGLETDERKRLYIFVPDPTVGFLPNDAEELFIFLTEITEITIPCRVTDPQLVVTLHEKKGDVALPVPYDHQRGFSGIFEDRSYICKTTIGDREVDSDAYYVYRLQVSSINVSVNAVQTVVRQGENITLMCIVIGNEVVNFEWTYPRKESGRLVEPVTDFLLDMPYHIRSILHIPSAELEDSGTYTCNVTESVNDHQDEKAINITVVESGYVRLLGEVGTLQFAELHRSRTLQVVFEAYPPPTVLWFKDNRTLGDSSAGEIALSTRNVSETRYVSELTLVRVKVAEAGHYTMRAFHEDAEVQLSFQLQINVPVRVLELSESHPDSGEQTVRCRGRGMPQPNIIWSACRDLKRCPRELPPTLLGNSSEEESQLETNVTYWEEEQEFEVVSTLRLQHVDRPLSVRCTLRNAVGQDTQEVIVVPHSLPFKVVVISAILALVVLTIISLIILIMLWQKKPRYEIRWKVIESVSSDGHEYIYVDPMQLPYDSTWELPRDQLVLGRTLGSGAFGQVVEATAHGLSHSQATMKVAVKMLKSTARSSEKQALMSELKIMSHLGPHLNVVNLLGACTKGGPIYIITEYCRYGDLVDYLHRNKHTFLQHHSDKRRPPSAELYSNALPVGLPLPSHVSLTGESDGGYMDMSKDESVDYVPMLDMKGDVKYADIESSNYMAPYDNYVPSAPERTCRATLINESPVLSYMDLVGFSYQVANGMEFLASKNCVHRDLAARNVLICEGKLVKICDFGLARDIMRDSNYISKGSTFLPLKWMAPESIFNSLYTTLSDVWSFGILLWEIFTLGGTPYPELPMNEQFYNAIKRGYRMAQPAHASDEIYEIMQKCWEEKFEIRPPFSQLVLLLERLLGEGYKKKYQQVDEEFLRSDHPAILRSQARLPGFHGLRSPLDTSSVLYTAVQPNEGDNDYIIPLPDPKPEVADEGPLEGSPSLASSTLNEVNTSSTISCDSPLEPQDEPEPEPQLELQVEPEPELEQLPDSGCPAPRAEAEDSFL", "assay": "PDGF-R ELISA", "type": "cell-based", "set-up": "cells (U1242, obtained from Joseph Schlessinger, NYU); endogenous in cells; host or cells: U1242", "details": "read-out: PDGFR IC50; Table 2", "protocol": "All cell culture media, glutamine, and fetal bovine serum can be purchased from Gibco Life Technologies (Grand Island, N.Y.) unless otherwise specified. […] All cell lines are routinely subcultured twice a week and are negative for mycoplasma as determined by the Mycotect method (Gibco).\nFor ELISA assays, cells (U1242, obtained from Joseph Schlessinger, NYU) are grown to 80-90% confluency in growth medium (MEM with 10% FBS, NEAA, 1 mM NaPyr and 2 mM GLN) and seeded in 96-well tissue culture plates in 0.5% serum at 25,000 to 30,000 cells per well. After overnight incubation in 0.5% serum-containing medium, cells are changed to serum-free medium and treated with test compound for 2 hr in a 5% CO2, 37° C. incubator. […] Lysates are incubated with shaking for 1 hour at room temperature. The plates are washed with TBST four times and then incubated with polyclonal anti-phosphotyrosine antibody at room temperature for 30 minutes. Excess anti-phosphotyrosine antibody is removed by rinsing the plate with TBST four times. Goat anti-rabbit IgG antibody is added to the ELISA plate for 30 min at room temperature followed by rinsing with TBST four more times. […] Absorbance at 410 nm with a reference wavelength of 630 nm is recorded about 15 to 30 min after ABTS addition."}},
  "data": [
    {"molecule": "NS(=O)(=O)c1ccc2c(c1)C(=Cc1cc3c([nH]1)CCCC3)C(=O)N2", "values": [
      {"measurement": "IC50", "setting": "FLK-1 receptor", "value": "> 100000", "unit": "nM"},
      {"measurement": "IC50", "setting": "src protein kinase", "value": 800, "unit": "nM"},
      {"measurement": "IC50", "setting": "lck protein kinase", "value": 700, "unit": "nM"},
      {"measurement": "IC50", "setting": "FAK", "value": "> 10000", "unit": "nM"},
      {"measurement": "IC50", "setting": "HUV-EC-C cells [1]; Homo sapiens", "value": 650, "unit": "nM"},
      {"measurement": "IC50", "setting": "HUV-EC-C cells [1]", "value": 1070, "unit": "nM"},
      {"measurement": "IC50", "setting": "HUV-EC-C cells [2]; Homo sapiens", "value": 2400, "unit": "nM"},
      {"measurement": "IC50", "setting": "HUV-EC-C cells [2]", "value": 3300, "unit": "nM"},
      {"measurement": "IC50", "setting": "EGFr", "value": "> 100000", "unit": "nM"},
      {"measurement": "IC50", "setting": "PDGFr", "value": 1000, "unit": "nM"}
    ]}
  ]
}
